These results are taken from publication PMC8048308, “Lysophosphatidic acid (LPA)-antibody (504B3) engagement detected by interferometry identifies off-target binding” (Lipids in Health and Disease, 2021).

For test [1], the target named is anti-LPA antibody, 504B3. Kind of test: free solution assay (FSA) measured in a compensated interferometric reader (CIR), equilibrium binding of lipids to antibody. To be noted: 5 μg/ml 504B3, 0–50 nM ligand; for Kd: read-out: KD from FSA ± SD (95% CI); for Bmax (95% CI): one-site specific binding fit of the ΔRI signal. Also noted: species or system murine. The protocol:
The FSA configuration required refractive index (RI)-matched sample and reference solutions (Fig. 2). The binding affinity determinations were done in an end-point assay format. A ligand dilution series (100, 20, 4, 0.8, 0.16, 0.032, and 0 nM) was prepared in 0.01% BSA / 0.002% EtOH/Phosphate buffered saline (PBS; ThermoFisher Scientific, Waltham, MA, USA) from an intermediate stock of 200 nM LPs in 0.01% BSA / 0.002% EtOH/PBS. Lipids were prepared in fatty acid-free BSA solutions to approximate the biological conditions of LPs. Then, each LP dilution was combined with PBS-only to create the reference solution, or 10 μg/ml of the 504B3 antibody in PBS to create the corresponding binding sample solution (Fig. 2). Sample and reference solutions were kept at RT in a shaker for approximately 1-h to reach equilibrium and then analyzed using the CIR. The final concentrations were 5 μg/ml of antibody and 0–50 nM of ligand in a final buffer composition of 0.005% BSA / 0.001% EtOH/PBS. The details of the interferometer instrumentation have been described elsewhere. Briefly, it consists of a diode laser, two mirrors, one glass capillary, and a CCD camera. Droplet trains of sample-reference pairs were maintained at a constant flow rate in the capillary using a droplet generator (Mitos Dropix; Dolomite Microfluidics, (Royston, North Hertfordshire, UK)) and a syringe pump (Harvard Apparatus, Holliston, MA, USA). Together, the interferometer, a syringe pump (at a flow rate of 10 μL/min), and a droplet generator comprise the CIR. The RI change between the binding sample and reference was measured as a positional shift in backscattered interference fringes produced from the interaction between an expanded beam profile of the laser and a capillary filled with sample-reference solutions [24]. The shift of the backscattered fringe patterns, which is equivalent to molecular binding, was quantified using fast Fourier transform of selected fringes captured in a CCD array. The assay was measured sequentially, as reference, then sample for each concentration, as described previously. The concentration dependent signal was plotted using a non-linear regression, one-site specific binding (Y=Bmax*X/(KD + X) + D; where D is the offset value) isotherm fit in GraphPad Prism Version 8 to determine the equilibrium dissociation constants (KDs). […] The sample and reference solutions were prepared by mixing a ligand dilution series (0–100 nM) with an equivalent volume of the 504B3 solution (sample; 10 μg/ml dissolved in PBS, pH 7.4) or PBS only (reference) (Fig. 2).

Test [2] concerns the target LPA1. Also noted: method as in PMID 30463988, PMID 32513900. To be noted: CIR; cited from earlier work.
Setting [3] is: 0.005% BSA / 0.001% EtOH/PBS, about 1 h at RT, one-site specific binding fit.

Molecules are shown by their SMILES. “And” between values parts separate entries of the source, which are not always exact repeats. Identical values can stand only once.

For the compound `CCCCCCCCCCCCCCCC(=O)OC[C@@H](O)COP(=O)(O)O` [16:0 LPA, 1-palmitoyl-LPA (16:0)], in test [1] (setting [3]), the “KD from FSA ± SD (95% CI)” value is reported as “weaker affinity” and the Kd was greater than 30 nM. The “Bmax (95% CI)” value in test [1] is given as 0.39 (undetermined^a). The “native equilibrium binding (KD) to LPA1” value in test [2] was “comparable binding”.
For `CCCCCCCC/C=C\CCCCCCCC(=O)OC[C@@H](O)COP(=O)(O)O` [18:1 LPA, 1-oleoyl-LPA (18:1)], in test [1] (setting [3]), the Kd came to 3.7 ± 2.8 nM. Moreover, the “Bmax (95% CI)” value in test [1] is 0.17 (0.14 to 0.25). Besides, the “native equilibrium binding (KD) to LPA1” value in test [2] is “comparable binding”.
On to `CCCCCCCC/C=C\CCCCCCCC(=O)OC[C@@H](O)COP(=O)([O-])OCC[N+](C)(C)C` [18:1 LPC, 1-oleoyl-lysophosphatidylcholine], for which the Kd in test [1] (setting [3]) was ~8.5 nM and 8.5 nM. In addition, the “Bmax (95% CI)” value in test [1] is listed as 0.14 (0.12 to 0.16).
As for `CCCCCCCCCCCCC/C=C/[C@@H](O)[C@@H](N)COP(=O)(O)O` [18:1 S1P, sphingosine 1-phosphate (d18:1)], the “specific binding signal (ΔRI) with 504B3” value in test [1] is “No specific binding signal”; in test [1] (listed as S1P) it was “no signal”.
